Results: paper PMC6895180 (Nature Communications, 2019)
“And” between values parts separate entries of the source, which are not always exact repeats. Identical values can stand only once.

What was measured:
[1] = test system: T. brucei BSF s427 wildtype cells; experiment: Growth assays of T. brucei (trypanocidal/trypanostatic effect); format: cell-based, Trypanosoma brucei
Description: Growth assays of T. brucei
To test the effect of the novel adenosine analogues on the growth of T. brucei BSF, s427 wildtype cells were seeded at 1×10^5 cells mL-1 in 5 mL of HMI-9 medium with 10% FBS and treated with compounds […]
cells were also incubated in drug-free medium under the same conditions. 2 μM of 2’-deoxycoformycin were added to all cultures to avoid any potential effect of serum adenosine deaminase on the activity of test compounds and cordycepin.1
Cells were manually counted in Neubauer chambers at 0, 2, 4, 6, 8, 12, 24, 36 and 48 h after addition of […]
the drugs. […]
After 6 and 12 h after addition of drugs, approximately 2×10^6 cells were harvested from each group and applied to glass slides pre-treated with poly-L-lysine, left to settle for 5 min and fixed with 4% formaldehyde for 4 min. The formaldehyde was neutralised by addition of 100 mM glycine (20 min).
Cells were washed once with PBS and blocked for 1 h with 1% BSA/0.2% Tween-20 in PBS. Cells were […]

[2] = Cytotoxicity on MRC-5 fibroblasts (resazurin); format: cell-based, human; conditions: human
Method in brief: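 MRC-5SV2 cells (3 × 10^4 cells mL^−1) in MEM with 5% foetal calf serum exposed to compounds for 3 days at 37 °C, 5% CO2. Viability read by resazurin fluorescence (10 µg mL^−1 final, 4 h; λex 550/λem 590 nm) against untreated and medium controls; EC50 derived.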

For `Nc1ncnc2c1c(Br)cn2[C@@H]1O[C@H](CO)[C@@H](O)[C@H]1O` [Compound 8, 7-bromotubercidin], the “AVG of cells/mL” value ([1]; 2xEC50, 2 h, experiment 1) was 142500 cells/mL, the Cells/mL ([1]; 2xEC50, 2 h, experiment 1) was 127500 Cells/mL and 157500 Cells/mL and the Counts ([1]; 2xEC50, 2 h, experiment 1) was 51 and 63. The “AVG of cells/mL” value ([1]; 2xEC50, 2 h, experiment 2) was 155000 cells/mL, the Cells/mL ([1]; 2xEC50, 2 h, experiment 2) was 145000 Cells/mL and 165000 Cells/mL and the Counts ([1]; 2xEC50, 2 h, experiment 2) was 58 and 66. For the same molecule, the “AVG of cells/mL” value ([1]; 2xEC50, 4 h, experiment 1) was 146250 cells/mL, the Cells/mL ([1]; 2xEC50, 4 h, experiment 1) was 140000 Cells/mL and 152500 Cells/mL and the Counts ([1]; 2xEC50, 4 h, experiment 1) was 61 and 56. The “AVG of cells/mL” value ([1]; 2xEC50, 4 h, experiment 2) was 162500 cells/mL, the Cells/mL ([1]; 2xEC50, 4 h, experiment 2) was 140000 Cells/mL and 185000 Cells/mL and the Counts ([1]; 2xEC50, 4 h, experiment 2) was 74 and 56. For the same molecule, the “AVG of cells/mL” value ([1]; 2xEC50, 6 h, experiment 1) was 147500 cells/mL, the Cells/mL ([1]; 2xEC50, 6 h, experiment 1) was 132500 Cells/mL and 162500 Cells/mL and the Counts ([1]; 2xEC50, 6 h, experiment 1) was 53 and 65. For the same molecule, the “AVG of cells/mL” value ([1]; 2xEC50, 6 h, experiment 2) was 175000 cells/mL, the Cells/mL ([1]; 2xEC50, 6 h, experiment 2) was 175000 Cells/mL and the Counts ([1]; 2xEC50, 6 h, experiment 2) was 70. For the same molecule, the “AVG of cells/mL” value ([1]; 2xEC50, 8 h, experiment 1) was 175000 cells/mL, the Cells/mL ([1]; 2xEC50, 8 h, experiment 1) was 185000 Cells/mL and 165000 Cells/mL and the Counts ([1]; 2xEC50, 8 h, experiment 1) was 74 and 66. For the same molecule, the “AVG of cells/mL” value ([1]; 2xEC50, 8 h, experiment 2) was 166250 cells/mL, the Cells/mL ([1]; 2xEC50, 8 h, experiment 2) was 180000 Cells/mL and 152500 Cells/mL and the Counts ([1]; 2xEC50, 8 h, experiment 2) was 72 and 61. The “AVG of cells/mL” value ([1]; 2xEC50, 12 h, experiment 1) was 185000 cells/mL, the Cells/mL ([1]; 2xEC50, 12 h, experiment 1) was 185000 Cells/mL and the Counts ([1]; 2xEC50, 12 h, experiment 1) was 74. For the same molecule, the “AVG of cells/mL” value ([1]; 2xEC50, 12 h, experiment 2) was 181250 cells/mL, the Cells/mL ([1]; 2xEC50, 12 h, experiment 2) was 190000 Cells/mL and 172500 Cells/mL and the Counts ([1]; 2xEC50, 12 h, experiment 2) was 76 and 69. For the same molecule, the “AVG of cells/mL” value ([1]; 2xEC50, 24 h, experiment 1) was 211250 cells/mL, the Cells/mL ([1]; 2xEC50, 24 h, experiment 1) was 227500 Cells/mL and 195000 Cells/mL and the Counts ([1]; 2xEC50, 24 h, experiment 1) was 91 and 78. The “AVG of cells/mL” value ([1]; 2xEC50, 24 h, experiment 2) was 167500 cells/mL, the Cells/mL ([1]; 2xEC50, 24 h, experiment 2) was 165000 Cells/mL and 170000 Cells/mL and the Counts ([1]; 2xEC50, 24 h, experiment 2) was 66 and 68. For the same molecule, the “AVG of cells/mL” value ([1]; 2xEC50, 36 h, experiment 1) was 350000 cells/mL, the Cells/mL ([1]; 2xEC50, 36 h, experiment 1) was 322500 Cells/mL and 377500 Cells/mL and the Counts ([1]; 2xEC50, 36 h, experiment 1) was 129 and 151. The “AVG of cells/mL” value ([1]; 2xEC50, 36 h, experiment 2) was 212500 cells/mL, the Cells/mL ([1]; 2xEC50, 36 h, experiment 2) was 220000 Cells/mL and 205000 Cells/mL and the Counts ([1]; 2xEC50, 36 h, experiment 2) was 88 and 82. The “AVG of cells/mL” value ([1]; 2xEC50, 48 h, experiment 1) was 365000 cells/mL, the Cells/mL ([1]; 2xEC50, 48 h, experiment 1) was 365000 Cells/mL and the Counts ([1]; 2xEC50, 48 h, experiment 1) was 146. For the same molecule, the “AVG of cells/mL” value ([1]; 2xEC50, 48 h, experiment 2) was 152500 cells/mL, the Cells/mL ([1]; 2xEC50, 48 h, experiment 2) was 142500 Cells/mL and 162500 Cells/mL and the Counts ([1]; 2xEC50, 48 h, experiment 2) was 57 and 65. For the same molecule, the “effect on T. brucei bloodstream forms in culture (cidal/static)” value ([1]; 2× and 5× EC50) was “trypanostatic”, the “AVG of cells/mL” value ([1]; 5xEC50, 2 h, experiment 1) was 118750 cells/mL and the Cells/mL ([1]; 5xEC50, 2 h, experiment 1) was 130000 Cells/mL and 107500 Cells/mL. The Counts ([1]; 5xEC50, 2 h, experiment 1) was 52 and 43, the “AVG of cells/mL” value ([1]; 5xEC50, 2 h, experiment 2) was 130000 cells/mL and the Cells/mL ([1]; 5xEC50, 2 h, experiment 2) was 137500 Cells/mL and 122500 Cells/mL. The Counts ([1]; 5xEC50, 2 h, experiment 2) was 55 and 49, the “AVG of cells/mL” value ([1]; 5xEC50, 4 h, experiment 1) was 138750 cells/mL and the Cells/mL ([1]; 5xEC50, 4 h, experiment 1) was 132500 Cells/mL and 145000 Cells/mL. The Counts ([1]; 5xEC50, 4 h, experiment 1) was 58 and 53, the “AVG of cells/mL” value ([1]; 5xEC50, 4 h, experiment 2) was 130000 cells/mL and the Cells/mL ([1]; 5xEC50, 4 h, experiment 2) was 125000 Cells/mL and 135000 Cells/mL. For the same molecule, the Counts ([1]; 5xEC50, 4 h, experiment 2) was 54 and 50, the “AVG of cells/mL” value ([1]; 5xEC50, 6 h, experiment 1) was 186250 cells/mL and the Cells/mL ([1]; 5xEC50, 6 h, experiment 1) was 195000 Cells/mL and 177500 Cells/mL. For the same molecule, the Counts ([1]; 5xEC50, 6 h, experiment 1) was 78 and 71, the “AVG of cells/mL” value ([1]; 5xEC50, 6 h, experiment 2) was 162500 cells/mL and the Cells/mL ([1]; 5xEC50, 6 h, experiment 2) was 155000 Cells/mL and 170000 Cells/mL. The Counts ([1]; 5xEC50, 6 h, experiment 2) was 62 and 68, the “AVG of cells/mL” value ([1]; 5xEC50, 8 h, experiment 1) was 160000 cells/mL and the Cells/mL ([1]; 5xEC50, 8 h, experiment 1) was 162500 Cells/mL and 157500 Cells/mL. For the same molecule, the Counts ([1]; 5xEC50, 8 h, experiment 1) was 65 and 63, the “AVG of cells/mL” value ([1]; 5xEC50, 8 h, experiment 2) was 125000 cells/mL and the Cells/mL ([1]; 5xEC50, 8 h, experiment 2) was 122500 Cells/mL and 127500 Cells/mL. The Counts ([1]; 5xEC50, 8 h, experiment 2) was 49 and 51, the “AVG of cells/mL” value ([1]; 5xEC50, 12 h, experiment 1) was 176250 cells/mL and the Cells/mL ([1]; 5xEC50, 12 h, experiment 1) was 190000 Cells/mL and 162500 Cells/mL. The Counts ([1]; 5xEC50, 12 h, experiment 1) was 76 and 65, the “AVG of cells/mL” value ([1]; 5xEC50, 12 h, experiment 2) was 166250 cells/mL and the Cells/mL ([1]; 5xEC50, 12 h, experiment 2) was 175000 Cells/mL and 157500 Cells/mL. For the same molecule, the Counts ([1]; 5xEC50, 12 h, experiment 2) was 70 and 63, the “AVG of cells/mL” value ([1]; 5xEC50, 24 h, experiment 1) was 146250 cells/mL and the Cells/mL ([1]; 5xEC50, 24 h, experiment 1) was 135000 Cells/mL and 157500 Cells/mL. For the same molecule, the Counts ([1]; 5xEC50, 24 h, experiment 1) was 54 and 63, the “AVG of cells/mL” value ([1]; 5xEC50, 24 h, experiment 2) was 126250 cells/mL and the Cells/mL ([1]; 5xEC50, 24 h, experiment 2) was 115000 Cells/mL and 137500 Cells/mL. For the same molecule, the Counts ([1]; 5xEC50, 24 h, experiment 2) was 46 and 55, the “AVG of cells/mL” value ([1]; 5xEC50, 36 h, experiment 1) was 146250 cells/mL and the Cells/mL ([1]; 5xEC50, 36 h, experiment 1) was 147500 Cells/mL and 145000 Cells/mL. The Counts ([1]; 5xEC50, 36 h, experiment 1) was 59 and 58, the “AVG of cells/mL” value ([1]; 5xEC50, 36 h, experiment 2) was 138750 cells/mL and the Cells/mL ([1]; 5xEC50, 36 h, experiment 2) was 145000 Cells/mL and 132500 Cells/mL. For the same molecule, the Counts ([1]; 5xEC50, 36 h, experiment 2) was 58 and 53, the “AVG of cells/mL” value ([1]; 5xEC50, 48 h, experiment 1) was 112500 cells/mL and the Cells/mL ([1]; 5xEC50, 48 h, experiment 1) was 112500 Cells/mL. The Counts ([1]; 5xEC50, 48 h, experiment 1) was 45, the “AVG of cells/mL” value ([1]; 5xEC50, 48 h, experiment 2) was 75000 cells/mL and the Cells/mL ([1]; 5xEC50, 48 h, experiment 2) was 65000 Cells/mL and 85000 Cells/mL. The Counts ([1]; 5xEC50, 48 h, experiment 2) was 26 and 34, the EC50 at 3 day ([2]; MRC-5 EC50, Average) was 12.8 µM and the EC50 at 3 day ([2]; MRC-5 EC50, single measurements) was 8.18 µM.
